Source: US7138361B2, “Herbicidal heterocycles” (E. I. du Pont de Nemours and Company, priority 2000, dated 2006)

Key:
Assay type in all cases: in vivo
[1] = tested on: smallflower flatsedge (Cyperus difformis); assay: Test C flooded paddy test; details: for Flatsedge plant response rating: Flooded Paddy, scale 0 to 100, 0 no effect, 100 complete control; for Plant response rating, Flatsedge: flooded paddy test, scale 0 to 100 (0 no effect, 100 complete control)
How it was run: (§1)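 Each species was cultivated to 2 leaves in flooded paddy pots, then treated. After a greenhouse period of 12–14 days, the plants were scored visually relative to controls from 0 (no effect) to 100 (complete control).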

[2] = tested on: duck salad (Heteranthera limosa); assay: Test C flooded paddy test; details: for Ducksalad plant response rating: Flooded Paddy, scale 0 to 100, 0 no effect, 100 complete control; for Plant response rating, Ducksalad: flooded paddy test, scale 0 to 100 (0 no effect, 100 complete control)
How it was run: as §1

[3] = tested on: barnyardgrass (Echinochloa crus-galli); assay: Test C flooded paddy test; details: for Barnyardgrass plant response rating: Flooded Paddy, scale 0 to 100, 0 no effect, 100 complete control; for Plant response rating, Barnyardgrass: flooded paddy test, scale 0 to 100 (0 no effect, 100 complete control)
How it was run: as §1

[4] = tested on: rice (Oryza saliva); assay: Test C flooded paddy test; details: for Rice plant response rating: Flooded Paddy, scale 0 to 100, 0 no effect, 100 complete control; for Plant response rating, Rice: flooded paddy test, scale 0 to 100 (0 no effect, 100 complete control)
How it was run: as §1

[5] = tested on: Surinam grass (Brachiaria decumbens); assay: Test B postemergence; details: 13 to 15 days
From the text: (§2) Seeds selected from barnyardgrass (Echinochloa crus-galli), Surinam grass (Brachiaria decumbens), cocklebur (Xanthium strumarium), corn (Zea mays), crabgrass (Digitaria sanguinalis), giant foxtail (Setaria faberii), lambsquarters (Chenopodium album), morning glory (Ipomoea hederacea), pigweed (Amaranthus retroflexus), rice (Oryza saliva) and velvetleaf (Abutilon theophrasti) were planted and treated preemergence with test chemicals formulated in a non-phytotoxic solvent mixture which included a surfactant.
(§3) At the same time, plants selected from these crop and weed species and also blackgrass (Alopecurus myosuroides), wheat (Triticum aestivum) and wild oat (Avena fatua) were treated with postemergence applications of test chemicals formulated in the same manner. Plants ranged in height from 2 to 18 cm (1- to 4-leaf stage) for postemergence treatments. Plant species in the flooded paddy test consisted of rice (Oryza saliva), smallflower flatsedge (Cyperus difformis), duck salad (Heteranthera limosa) and barnyardgrass (Echinochloa crus-galli) grown to the 2-leaf stage for testing. Treated plants and controls were maintained in a greenhouse for 13 to 15 days, after which time all species were compared to controls and visually evaluated. Plant response ratings, summarized in Table B, are based on a scale of 0 to 100 where 0 is no effect and 100 is complete control. A dash (-) response means no test result.

[6] = tested on: giant foxtail (Setaria faberii); assay: Test B postemergence; details: 13 to 15 days
From the text: as §2, §3

[7] = tested on: wheat (Triticum aestivum); assay: Test B postemergence; details: 13 to 15 days
From the text: as §2, §3

[8] = tested on: pigweed (Amaranthus retroflexus); assay: Test B postemergence; details: 13 to 15 days
From the text: as §2, §3

[9] = tested on: corn (Zea mays); assay: Test B postemergence; details: 13 to 15 days
From the text: as §2, §3

[10] = tested on: wild oat (Avena fatua); assay: Test B postemergence; details: 13 to 15 days
From the text: as §2, §3

[11] = tested on: blackgrass (Alopecurus myosuroides); assay: Test B postemergence; details: 13 to 15 days
From the text: as §2, §3

[12] = tested on: morning glory (Ipomoea hederacea); assay: Test B postemergence; details: 13 to 15 days
From the text: as §2, §3

[13] = tested on: lambsquarters (Chenopodium album); assay: Test B postemergence; details: 13 to 15 days
From the text: as §2, §3

[14] = tested on: cocklebur (Xanthium strumarium); assay: Test B postemergence; details: 13 to 15 days
From the text: as §2, §3

[15] = tested on: barnyardgrass (Echinochloa crus-galli); assay: Test B postemergence; details: 13 to 15 days
From the text: as §2, §3

[16] = tested on: crabgrass (Digitaria sanguinalis); assay: Test B postemergence; details: 13 to 15 days
From the text: as §2, §3

[17] = tested on: velvetleaf (Abutilon theophrasti); assay: Test B postemergence; details: 13 to 15 days
From the text: as §2, §3

[18] = tested on: Surinam grass (Brachiaria decumbens); assay: Test B preemergence
From the text: as §2, §3

[19] = tested on: giant foxtail (Setaria faberii); assay: Test B preemergence
From the text: as §2, §3

[20] = tested on: pigweed (Amaranthus retroflexus); assay: Test B preemergence
From the text: as §2, §3

[21] = tested on: corn (Zea mays); assay: Test B preemergence
From the text: as §2, §3

[22] = tested on: morning glory (Ipomoea hederacea); assay: Test B preemergence
From the text: as §2, §3

[23] = tested on: lambsquarters (Chenopodium album); assay: Test B preemergence
From the text: as §2, §3

[24] = tested on: cocklebur (Xanthium strumarium); assay: Test B preemergence
From the text: as §2, §3

[25] = tested on: barnyardgrass (Echinochloa crus-galli); assay: Test B preemergence
From the text: as §2, §3

[26] = tested on: rice (Oryza saliva); assay: Test B preemergence
From the text: as §2, §3

[27] = tested on: crabgrass (Digitaria sanguinalis); assay: Test B preemergence
From the text: as §2, §3

[28] = tested on: velvetleaf (Abutilon theophrasti); assay: Test B preemergence
From the text: as §2, §3

[29] = Rate 125 g/ha, scale 0 (no effect) to 100 (complete control)
[30] = Rate 500 g/ha, scale 0 to 100, 0 is no effect, 100 is complete control
[31] = Preemergence, Rate 500 g/ha, scale 0 to 100, 0 no effect, 100 complete control
[32] = preemergence, Rate 125 g/ha, scale of 0 to 100 where 0 is no effect and 100 is complete control, 13 to 15 days

CC(C)(C)c1ccn(C2OCN(c3cccc(OC(F)(F)F)c3)C2=O)n1 (stereo not drawn) [Compound 66]
Flatsedge plant response rating ([1]; Rate 250 g/ha): 100 | Flatsedge plant response rating ([1]; Rate 500 g/ha): 100 | Plant response rating, Flatsedge ([1]; Rate 62 g/ha): 100 | Plant response rating, Flatsedge ([1]; Rate 125 g/ha): 100 | Ducksalad plant response rating ([2]; Rate 250 g/ha): 100 | Ducksalad plant response rating ([2]; Rate 500 g/ha): 100 | Plant response rating, Ducksalad ([2]; Rate 62 g/ha): 30 | Plant response rating, Ducksalad ([2]; Rate 125 g/ha): 90 | Barnyardgrass plant response rating ([3]; Rate 250 g/ha): 100 | Barnyardgrass plant response rating ([3]; Rate 500 g/ha): 100 | Plant response rating, Barnyardgrass ([3]; Rate 62 g/ha): 70 | Plant response rating, Barnyardgrass ([3]; Rate 125 g/ha): 100 | Rice plant response rating ([4]; Rate 250 g/ha): 50 | Rice plant response rating ([4]; Rate 500 g/ha): 100 | Plant response rating, Rice ([4]; Rate 62 g/ha): 0 | Plant response rating, Rice ([4]; Rate 125 g/ha): 0 | Plant response rating, Surinam grass [5, 29]: 0 | Plant response rating, Surinam grass [5, 30]: 30 | Plant response rating, Foxtail, Giant [6, 29]: 0 | Plant response rating, Foxtail, Giant [6, 30]: 60 | Plant response rating, Wheat [7, 29]: 0 | Plant response rating, Wheat [7, 30]: 0 | Plant response rating, Pigweed [8, 29]: 0 | Plant response rating, Pigweed [8, 30]: 0 | Plant response rating, Corn [9, 29]: 0 | Plant response rating, Corn [9, 30]: 0 | Plant response rating, Wild Oat [10, 29]: 0 | Plant response rating, Wild Oat [10, 30]: 0 | Plant response rating, Blackgrass [11, 29]: 0 | Plant response rating, Blackgrass [11, 30]: 0 | Plant response rating, Morningglory [12, 29]: 0 | Plant response rating, Morningglory [12, 30]: 0 | Plant response rating, Lambsquarters [13, 29]: 90 | Plant response rating, Lambsquarters [13, 30]: 90 | Plant response rating, Cocklebur [14, 29]: 0 | Plant response rating, Cocklebur [14, 30]: 20 | Plant response rating, Barnyardgrass [15, 29]: 100 | Plant response rating, Barnyardgrass [15, 30]: 100 | Plant response rating, Crabgrass [16, 29]: 30 | Plant response rating, Crabgrass [16, 30]: 100 | Plant response rating, Velvetleaf [17, 29]: 20 | Plant response rating, Velvetleaf [17, 30]: 20 | Plant response rating, Surinam grass [18, 31]: 20 | Plant response rating, Surinam grass [18, 32]: 20 | Plant response rating, Foxtail, Giant [19, 31]: 40 | Plant response rating, Foxtail, Giant [19, 32]: 20 | Plant response rating, Pigweed [20, 31]: 100 | Plant response rating, Pigweed [20, 32]: 100 | Plant response rating, Corn [21, 31]: 0 | Plant response rating, Corn [21, 32]: 0 | Plant response rating, Morningglory [22, 31]: 20 | Plant response rating, Lambsquarters [23, 31]: 100 | Plant response rating, Lambsquarters [23, 32]: 100 | Plant response rating, Cocklebur [24, 31]: 0 | Plant response rating, Barnyardgrass [25, 31]: 100 | Plant response rating, Barnyardgrass [25, 32]: 100 | Plant response rating, Rice [26, 31]: 20 | Plant response rating, Rice [26, 32]: 0 | Plant response rating, Crabgrass [27, 31]: 40 | Plant response rating, Crabgrass [27, 32]: 0 | Plant response rating, Velvetleaf [28, 31]: 20 | Plant response rating, Velvetleaf [28, 32]: 0

Cc1c(Cl)cc(N2CCC(n3ccc(C(C)(C)C)n3)C2=O)cc1Cl (stereo not drawn) [Compound 74]
Flatsedge plant response rating ([1]; Rate 250 g/ha): 0 | Flatsedge plant response rating ([1]; Rate 500 g/ha): 40 | Plant response rating, Flatsedge ([1]; Rate 62 g/ha): 0 | Plant response rating, Flatsedge ([1]; Rate 125 g/ha): 0 | Ducksalad plant response rating ([2]; Rate 250 g/ha): 0 | Ducksalad plant response rating ([2]; Rate 500 g/ha): 0 | Plant response rating, Ducksalad ([2]; Rate 62 g/ha): 0 | Plant response rating, Ducksalad ([2]; Rate 125 g/ha): 0 | Barnyardgrass plant response rating ([3]; Rate 250 g/ha): 0 | Barnyardgrass plant response rating ([3]; Rate 500 g/ha): 0 | Plant response rating, Barnyardgrass ([3]; Rate 62 g/ha): 0 | Plant response rating, Barnyardgrass ([3]; Rate 125 g/ha): 0 | Rice plant response rating ([4]; Rate 250 g/ha): 0 | Rice plant response rating ([4]; Rate 500 g/ha): 0 | Plant response rating, Rice ([4]; Rate 62 g/ha): 0 | Plant response rating, Rice ([4]; Rate 125 g/ha): 0 | Plant response rating, Surinam grass [5, 29]: 0 | Plant response rating, Surinam grass [5, 30]: 0 | Plant response rating, Foxtail, Giant [6, 29]: 0 | Plant response rating, Foxtail, Giant [6, 30]: 0 | Plant response rating, Wheat [7, 29]: 0 | Plant response rating, Wheat [7, 30]: 0 | Plant response rating, Pigweed [8, 29]: 80 | Plant response rating, Pigweed [8, 30]: 90 | Plant response rating, Corn [9, 29]: 0 | Plant response rating, Corn [9, 30]: 0 | Plant response rating, Wild Oat [10, 29]: 0 | Plant response rating, Wild Oat [10, 30]: 0 | Plant response rating, Blackgrass [11, 29]: 0 | Plant response rating, Blackgrass [11, 30]: 0 | Plant response rating, Morningglory [12, 29]: 0 | Plant response rating, Morningglory [12, 30]: 0 | Plant response rating, Lambsquarters [13, 29]: 0 | Plant response rating, Lambsquarters [13, 30]: 0 | Plant response rating, Cocklebur [14, 29]: 0 | Plant response rating, Cocklebur [14, 30]: 0 | Plant response rating, Barnyardgrass [15, 29]: 0 | Plant response rating, Barnyardgrass [15, 30]: 0 | Plant response rating, Crabgrass [16, 29]: 0 | Plant response rating, Crabgrass [16, 30]: 0 | Plant response rating, Velvetleaf [17, 29]: 0 | Plant response rating, Velvetleaf [17, 30]: 0 | Plant response rating, Surinam grass [18, 31]: 20 | Plant response rating, Surinam grass [18, 32]: 0 | Plant response rating, Foxtail, Giant [19, 31]: 60 | Plant response rating, Foxtail, Giant [19, 32]: 0 | Plant response rating, Pigweed [20, 31]: 90 | Plant response rating, Pigweed [20, 32]: 80 | Plant response rating, Corn [21, 31]: 0 | Plant response rating, Corn [21, 32]: 0 | Plant response rating, Morningglory [22, 31]: 0 | Plant response rating, Morningglory [22, 32]: 0 | Plant response rating, Lambsquarters [23, 31]: 100 | Plant response rating, Lambsquarters [23, 32]: 100 | Plant response rating, Cocklebur [24, 31]: 0 | Plant response rating, Cocklebur [24, 32]: 0 | Plant response rating, Barnyardgrass [25, 31]: 90 | Plant response rating, Barnyardgrass [25, 32]: 30 | Plant response rating, Rice [26, 31]: 0 | Plant response rating, Rice [26, 32]: 0 | Plant response rating, Crabgrass [27, 31]: 70 | Plant response rating, Crabgrass [27, 32]: 20 | Plant response rating, Velvetleaf [28, 31]: 0 | Plant response rating, Velvetleaf [28, 32]: 0
